Experimental data taken from publication PMC4982551 (MedChemComm, 2016).

Target: mPTPB (Mycobacterium tuberculosis, UniProt I6WXK4)
Assay: PTP activity assay with pNPP substrate, mPTPB
Format: biochemical
Conditions: ratio of IC50 values

Chain of mPTPB (I6WXK4 whole entry, looked up): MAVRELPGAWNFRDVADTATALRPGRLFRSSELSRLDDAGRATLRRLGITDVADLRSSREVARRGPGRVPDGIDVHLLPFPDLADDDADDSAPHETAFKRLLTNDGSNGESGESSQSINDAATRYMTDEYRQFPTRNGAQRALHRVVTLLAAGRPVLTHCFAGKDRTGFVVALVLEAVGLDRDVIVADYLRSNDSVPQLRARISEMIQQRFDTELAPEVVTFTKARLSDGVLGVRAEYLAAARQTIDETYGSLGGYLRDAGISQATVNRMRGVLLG

Cc1ccc(S(=O)(=O)NNC(=O)COc2ccc3cc(C(O)(C(F)(F)F)C(F)(F)F)c(O)cc3c2)cc1 [7r]
selectivity for mPTPB compared to SHP2, PTP1B, CD45, LYP, and FAP-1: more than 7 fold
